The values below come from patent publication US7709511B2, “Benzothiazolone derivatives” (AstraZeneca AB, priority 2005, dated 2010).

One assay has as its target T1, Adrenergic β2 (Homo sapiens, UniProt P07550).
T1 construct: endogenous in cells; host or cells: H292 cells
Briefly: Alternative adrenergic β2 mediated cAMP production in H292 cells (AlphaScreen cAMP detection). It counts as cell-based. As to conditions: for EC50: cAMP, test compounds incubated 60 minutes at room temperature, 300 μM rolipram, read-out: β2 pEC50 (converted); for β2 Int Act: fraction relative to the maximum activity determined for formoterol, 60 minutes incubation. As to the method: Alternative Adrenergic β2 Mediated cAMP Production Cell Preparation
H292 cells were grown in 225 cm2 flasks incubator at 37° C., 5% CO2 in RPMI medium containing, 10% (v/v) FBS (foetal bovine serum) and 2 mM L-glutamine.
Adherent H292 cells were removed from tissue culture flasks by treatment with Accutase™ cell detachment solution for 15 minutes. Flasks were incubated for 15 minutes in a humidified incubator at 37° C., 5% CO2. Detached cells were re-suspended in RPMI media (containing 10% (v/v) FBS and 2 mM L-glutamine) at 0.05×10^6 cells per mL. 5000 cells in 100 μL were added to each well of a tissue-culture-treated 96-well plate and the cells incubated overnight in a humidified incubator at 37° C., 5% CO2. The culture media was removed and cells were washed twice with 100 μL assay buffer and replaced with 50 μL assay buffer (HBSS solution containing 10 mM HEPES pH7.4 and 5 mM glucose). Cells were rested at room temperature for 20 minutes after which time 25 μL of rolipram (1.2 mM made up in assay buffer containing 2.4% (v/v) dimethylsulphoxide) was added. Cells were incubated with rolipram for 10 minutes after which time test compounds were added and the cells were incubated for 60 minutes at room temperature. The final rolipram concentration in the assay was 300 μM and final vehicle concentration was 1.6% (v/v) dimethylsulphoxide. The reaction was stopped by removing supernatants, washing once with 100 μL assay buffer and replacing with 50 μL lysis buffer. The cell monolayer was frozen at −80° C. for 30 minutes (or overnight).
AlphaScreen™ cAMP Detection
The concentration of cAMP (cyclic adenosine monophosphate) in the cell lysate was determined using AlphaScreen™ methodology. The frozen cell plate was thawed for 20 minutes on a plate shaker then 10 μL of the cell lysate was transferred to a 96-well white plate. 40 μL of mixed AlphaScreen™ detection beads pre-incubated with biotinylated cAMP, was added to each well and the plate incubated at room temperature for 10 hours in the dark. The AlphaScreen™ signal was measured using an EnVision spectrophotometer (Perkin-Elmer Inc.) with the recommended manufacturer's settings. cAMP concentrations were determined by reference to a calibration curve determined in the same experiment using standard cAMP concentrations. Concentration response curves for agonists were constructed and data was fitted to a four parameter logistic equation to determine both the pEC50 and Intrinsic Activity. Intrinsic Activity was expressed as a fraction relative to the maximum activity determined for formoterol in each experiment.
A general note: Cyclic AMP is a second messenger, typically raised through Gs and lowered through Gi signalling.

The target of assay [1] is T2, recombinant human adrenergic beta 1 receptors (Homo sapiens, UniProt P08588).
T2 construct: purchased Euroscreen
Briefly: Adrenergic β1 selectivity assay, inhibition of [125I]-Iodocyanopindolol binding to membranes. As to conditions: [125I]-Iodocyanopindolol 0.036 nM; read-out: β1 bind p IC50 (converted). The procedure:
Membranes containing recombinant human adrenergic beta 1 receptors were obtained from Euroscreen. These were diluted in Assay Buffer (50 mM HEPES, 1 mM EDTA, 120 mM NaCl, 0.1% gelatin, pH 7.4) to provide a final concentration of membranes that gave a clear window between maximum and minimum specific binding.
Assays were performed in U-bottomed 96-well polypropylene plates. 10 μL [^125I]-Iodocyanopindolol (0.036 nM final concentration) and 10 μL of test compound (10× final concentration) were added to each test well. For each assay plate 8 replicates were obtained for [^125I]-Iodocyanopindolol binding in the presence of 10 μL vehicle (10% (v/v) DMSO in Assay Buffer; defining maximum binding) or 10 μL Propranolol (10 μM final concentration; defining non-specific binding (NSB)). Membranes were then added to achieve a final volume of 100 μL. […] Five washes with 250 μL wash buffer (50 mM HEPES, 1 mM EDTA, 120 mM NaCl, pH 7.4) were performed at 4° C. to remove unbound radioactivity. […] The plates were sealed (TopSeal A) and filter-bound radioactivity was measured with a scintillation counter (TopCount, Packard BioScience) using a 3-minute counting protocol.
Total specific binding (B0) was determined by subtracting the mean NSB from the mean maximum binding. […]

Assay [2] addresses T3, recombinant human Dopamine Subtype D2s receptors (Homo sapiens, UniProt P14416).
T3 construct: purchased Perkin Elmer
Put plainly: Dopamine D2 selectivity assay, inhibition of [3H]-spiperone binding to membranes. The note with it: [3H]-spiperone 0.16 nM; read-out: D2 bind pIC50 (converted). As to the method: Membranes containing recombinant human Dopamine Subtype D2s receptors were obtained from Perkin Elmer. These were diluted in Assay Buffer (50 mM HEPES, 1 mM EDTA, 120 mM NaCl, 0.1% gelatin, pH 7.4) to provide a final concentration of membranes that gave a clear window between maximum and minimum specific binding.
Assays were performed in U-bottomed 96-well polypropylene plates. 30 μL [^3H]-spiperone (0.16 nM final concentration) and 30 μL of test compound (10× final concentration) were added to each test well. For each assay plate 8 replicates were obtained for [^3H]-spiperone binding in the presence of 30 μL vehicle (10% (v/v) DMSO in Assay Buffer; defining maximum binding) or 30 μL Haloperidol (10 μM final concentration; defining non-specific binding (NSB)). Membranes were then added to achieve a final volume of 300 μL. The plates were incubated for 2 hours at room temperature and then filtered onto PEI coated GF/B filter plates, pre-soaked for 1 hour in Assay Buffer, using a 96-well plate Tomtec cell harvester. Five washes with 250 μL wash buffer (50 mM HEPES, 1 mM EDTA, 120 mM NaCl, pH 7.4) were performed at 4° C. to remove unbound radioactivity. The plates were dried then sealed from underneath using Packard plate sealers and MicroScint-O (50 μL) was added to each well. The plates were sealed (TopSeal A) and filter-bound radioactivity was measured with a scintillation counter (TopCount, Packard BioScience) using a 3-minute counting protocol.
Total specific binding (B0) was determined by subtracting the mean NSB from the mean maximum binding. NSB values were also subtracted from values from all other wells. […] Data was fitted to a four parameter logistic equation to determine the compound potency, which was expressed as pIC50 (negative log molar concentration inducing 50% inhibition of [^3H]-spiperone binding).

Counter-ions that a name gives are not always drawn.

T1 sequence (P07550 whole entry): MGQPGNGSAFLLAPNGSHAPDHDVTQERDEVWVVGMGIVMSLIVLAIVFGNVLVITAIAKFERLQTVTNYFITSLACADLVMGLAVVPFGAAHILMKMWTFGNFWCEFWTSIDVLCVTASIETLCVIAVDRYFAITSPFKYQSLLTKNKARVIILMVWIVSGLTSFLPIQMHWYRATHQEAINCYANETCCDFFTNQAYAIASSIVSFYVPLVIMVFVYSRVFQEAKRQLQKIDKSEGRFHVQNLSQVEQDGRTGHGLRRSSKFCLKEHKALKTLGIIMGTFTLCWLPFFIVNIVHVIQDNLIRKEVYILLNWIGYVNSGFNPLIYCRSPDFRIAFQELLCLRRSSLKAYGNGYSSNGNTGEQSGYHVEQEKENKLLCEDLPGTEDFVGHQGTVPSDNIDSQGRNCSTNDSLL
T2 sequence (P08588 whole entry): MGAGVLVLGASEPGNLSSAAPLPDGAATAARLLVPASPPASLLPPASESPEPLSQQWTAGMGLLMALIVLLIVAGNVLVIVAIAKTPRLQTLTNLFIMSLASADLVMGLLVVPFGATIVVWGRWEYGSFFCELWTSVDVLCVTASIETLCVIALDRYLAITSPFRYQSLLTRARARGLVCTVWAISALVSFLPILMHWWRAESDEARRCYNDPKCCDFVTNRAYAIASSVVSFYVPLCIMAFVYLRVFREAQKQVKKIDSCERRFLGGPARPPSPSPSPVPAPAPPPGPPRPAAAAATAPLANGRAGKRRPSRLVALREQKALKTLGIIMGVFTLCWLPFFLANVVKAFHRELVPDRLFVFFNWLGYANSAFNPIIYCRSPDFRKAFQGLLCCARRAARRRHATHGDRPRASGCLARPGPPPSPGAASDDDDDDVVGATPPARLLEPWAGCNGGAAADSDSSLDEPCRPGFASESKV
T3 sequence (P14416 1-414 isoform P14416-2): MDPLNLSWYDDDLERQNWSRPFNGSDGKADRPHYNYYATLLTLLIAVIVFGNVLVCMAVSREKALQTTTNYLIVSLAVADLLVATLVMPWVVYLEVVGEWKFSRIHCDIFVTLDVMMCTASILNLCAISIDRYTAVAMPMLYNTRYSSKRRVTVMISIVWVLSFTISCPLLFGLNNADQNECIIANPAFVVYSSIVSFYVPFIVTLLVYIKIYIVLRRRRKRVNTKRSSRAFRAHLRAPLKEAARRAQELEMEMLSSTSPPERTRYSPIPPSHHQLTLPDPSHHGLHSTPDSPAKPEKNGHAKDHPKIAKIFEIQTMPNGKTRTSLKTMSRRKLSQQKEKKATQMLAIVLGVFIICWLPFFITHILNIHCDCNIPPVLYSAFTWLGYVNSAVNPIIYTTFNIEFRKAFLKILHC

For `CCN(CC)CCN(CCNCCc1ccc(O)c2[nH]c(=O)sc12)C(=O)CCOCCc1cccc(C)c1` [Example 28, N-[2-(Diethylamino)ethyl]-N-(2-{[2-(4-hydroxy-2-oxo-2,3-dihydro-1,3-benzothiazol-7-yl)ethyl]amino}ethyl)-3-[2-(3-methylphenyl)ethoxy]propanamide], the EC50 at Adrenergic β2 is 0.00316 µM. Moreover, the “β2 Int Act” value at Adrenergic β2 was determined as 0.6. Besides, the IC50 in assay [1] and in assay [2] was 1 µM in each case.
As for `CCN(CC)CCN(CCNCCc1ccc(O)c2[nH]c(=O)sc12)C(=O)CCOCCc1ccc(Cl)cc1` [Example 26, 3-[2-(4-Chlorophenyl)ethoxy]-N-(2-diethylaminoethyl)-N-{2-[2-(4-hydroxy-2-oxo-2,3-dihydro-1,3-benzothiazol-7-yl)ethylamino]ethyl}propanamide dihydrobromide], on Adrenergic β2, the EC50 is 0.0158 µM. The “β2 Int Act” value on Adrenergic β2 turned out to be 0.6. The results for the IC50 in assay [1] and in assay [2] were 1 µM and 1.26 µM, respectively.
